According to PMC4559364, “Triterpenoid profiling and functional characterization of the initial genes involved in isoprenoid biosynthesis in neem (Azadirachta indica)” (BMC Plant Biology, 2015):

Assays:
Assay type in all cases: biochemical
[1] = target: T1, AiGDS (Azadirachta indica, UniProt A0A088CND2); assay: GC-MS of geraniol after alkaline phosphatase; details: HEPES buffer, 30 °C, 2 h
T1 construct: E. coli; solubilised from inclusion bodies by pH 11 to 7 shift; Ni-NTA; homomeric type; mitochondrial targeting predicted
T1 sequence (A0A088CND2 1-420): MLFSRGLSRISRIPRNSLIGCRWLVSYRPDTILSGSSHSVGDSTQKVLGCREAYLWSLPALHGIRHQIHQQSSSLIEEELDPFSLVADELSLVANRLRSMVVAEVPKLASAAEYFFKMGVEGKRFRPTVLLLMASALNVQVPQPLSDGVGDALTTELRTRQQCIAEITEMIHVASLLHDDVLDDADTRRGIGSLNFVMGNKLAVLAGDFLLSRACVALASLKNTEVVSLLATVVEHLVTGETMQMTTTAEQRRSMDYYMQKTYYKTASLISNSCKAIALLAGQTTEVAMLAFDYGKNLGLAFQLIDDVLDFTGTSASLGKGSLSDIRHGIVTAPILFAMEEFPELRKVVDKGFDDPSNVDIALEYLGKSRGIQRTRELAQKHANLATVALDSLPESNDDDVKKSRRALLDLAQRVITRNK

[2] = target: T2, full length AiSQS (Azadirachta indica, UniProt I1Z8B6); assay: GC-MS of squalene; details: 100 μM FPP, 1 mM NADPH; 30 °C, 2 h
T2 construct: gene SQS1; full-length, printed as 396 residues from 1176 bp ORF (these disagree), 44 kDa; pRSET-C, His6 tag; E. coli BL21 Star(DE3); glycerol/CHAPS, Ni-NTA
T2 sequence (I1Z8B6 entry or part of it): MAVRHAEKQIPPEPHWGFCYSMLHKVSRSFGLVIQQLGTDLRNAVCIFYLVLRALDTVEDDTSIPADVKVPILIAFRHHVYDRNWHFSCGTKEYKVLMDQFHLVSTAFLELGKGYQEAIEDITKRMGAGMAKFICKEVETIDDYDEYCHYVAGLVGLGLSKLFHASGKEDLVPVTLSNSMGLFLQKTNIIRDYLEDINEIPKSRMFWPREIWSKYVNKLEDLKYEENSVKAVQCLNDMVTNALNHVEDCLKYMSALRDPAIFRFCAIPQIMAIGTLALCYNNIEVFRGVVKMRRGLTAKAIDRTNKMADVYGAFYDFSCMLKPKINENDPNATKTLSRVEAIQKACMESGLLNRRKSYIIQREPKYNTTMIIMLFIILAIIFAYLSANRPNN

[3] = target: T3, truncated AiSQS (Azadirachta indica, UniProt I1Z8B6); assay: GC-MS of squalene; details: 100 μM FPP, 1 mM NADPH; 30 °C, 2 h
T3 construct: gene SQS1; truncated: 15 N-terminal and 63 C-terminal residues deleted (end border uncertain, printed 396 residues and 1176 bp ORF disagree); pET28c, His6 tag; E. coli BL21(DE3); Ni-NTA; ~35 kDa
T3 sequence (I1Z8B6 entry or part of it): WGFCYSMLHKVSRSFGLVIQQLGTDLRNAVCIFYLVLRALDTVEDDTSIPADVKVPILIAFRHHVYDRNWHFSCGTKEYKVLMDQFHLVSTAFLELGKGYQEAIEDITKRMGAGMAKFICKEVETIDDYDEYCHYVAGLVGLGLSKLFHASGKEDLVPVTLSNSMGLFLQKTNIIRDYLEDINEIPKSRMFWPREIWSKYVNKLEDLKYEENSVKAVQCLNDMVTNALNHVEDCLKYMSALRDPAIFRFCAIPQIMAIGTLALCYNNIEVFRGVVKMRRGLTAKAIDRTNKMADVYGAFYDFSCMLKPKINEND

[4] = target: T4, AiFDS (Azadirachta indica, UniProt A0A088CNE3); assay: GC-MS of (E,E)-farnesol after alkaline phosphatase; details: HEPES buffer, 30 °C, 2 h
T4 construct: E. coli BL21(DE3); Ni-NTA
T4 sequence (A0A088CNE3 1-342): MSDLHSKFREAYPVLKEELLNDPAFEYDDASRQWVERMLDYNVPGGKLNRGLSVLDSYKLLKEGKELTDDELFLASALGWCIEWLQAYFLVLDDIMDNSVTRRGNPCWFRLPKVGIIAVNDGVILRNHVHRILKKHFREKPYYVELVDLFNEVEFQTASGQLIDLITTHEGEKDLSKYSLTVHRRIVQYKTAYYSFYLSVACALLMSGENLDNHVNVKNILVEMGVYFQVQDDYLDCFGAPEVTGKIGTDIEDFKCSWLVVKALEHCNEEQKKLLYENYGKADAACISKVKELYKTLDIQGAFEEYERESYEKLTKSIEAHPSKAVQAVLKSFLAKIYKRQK

Compound | GC-MS of squalene [2] | GC-MS of squalene [3] | also measured
CC(C)=CCOP(=O)(O)OP(=O)(O)O [DMAPP] | – | – | GC-MS of geraniol after alkaline phosphatase ([1]; with IPP, DMAPP 100 μM): Purified recombinant AiGDS was incubated with equimolar concentration of IPP and DMAPP
CC(C)=CCC/C(C)=C/CC/C(C)=C/COP(=O)(O)OP(=O)(O)O [FPP] | full length and truncated AiSQS with FPP in the presence of NADPH | full length and truncated AiSQS with FPP in the presence of NADPH | –
CC(C)=CCC/C(C)=C/COP(=O)(O)OP(=O)(O)O [GPP] | – | – | GC-MS of (E,E)-farnesol after alkaline phosphatase ([4]; with IPP, GPP 100 μM): purified short-chain prenyltransferase was incubated with DMAPP/GPP and IPP followed by treatment with alkaline phosphatase
C=C(C)CCOP(=O)(O)OP(=O)(O)O [IPP] | – | – | GC-MS of geraniol after alkaline phosphatase ([1]; with DMAPP, IPP 100-200 μM): Purified recombinant AiGDS was incubated with equimolar concentration of IPP and DMAPP; GC-MS of (E,E)-farnesol after alkaline phosphatase ([4]; with DMAPP or GPP, IPP 100-200 μM): purified short-chain prenyltransferase was incubated with DMAPP/GPP and IPP followed by treatment with alkaline phosphatase
NC(=O)C1=CN([C@@H]2O[C@H](COP(=O)(O)OP(=O)(O)OC[C@H]3O[C@@H](n4cnc5c(N)ncnc54)[C@H](OP(=O)(O)O)[C@@H]3O)[C@@H](O)[C@H]2O)C=CC1 [NADPH] | full length and truncated AiSQS with FPP in the presence of NADPH | full length and truncated AiSQS with FPP in the presence of NADPH | –
